Assay results: ChEMBL document CHEMBL6071157, “Improved N-phenylpyrrolamide inhibitors of DNA gyrase as antibacterial agents for high-priority bacterial strains” (Eur J Med Chem, 2024)
Values after ≈ are worked out from the molar mass of the structure shown. Active and inactive are the calls of the source. No cut-off for these calls is given here.

Experiments:
Escherichia coli [1] = experiment: Antibacterial activity against Escherichia coli ATCC 25922 assessed as inhibition of bacterial growth by broth microdilution method; assay type: functional
Enterococcus faecium = experiment: Antibacterial activity against vancomycin-resistant Enterococcus faecium ATCC 700221 assessed as inhibition of bacterial growth by broth microdilution method; assay type: functional
Pseudomonas aeruginosa = experiment: Antibacterial activity against Pseudomonas aeruginosa ATCC 27853 assessed as inhibition of bacterial growth by broth microdilution metho; assay type: functional
Staphylococcus aureus [2] = experiment: Antibacterial against methicillin resistant Staphylococcus aureus ATCC 43300 assessed as inhibition of bacterial growth by broth microdilution method; assay type: functional; conditions: time 24 hrs
Staphylococcus aureus [3] = experiment: Antibacterial activity against Staphylococcus aureus ATCC 29213 assessed as inhibition of bacterial growth by broth microdilution method; assay type: functional
MCF7 = experiment: Cytotoxicity against human MCF7 cells assessed as cell viability at 50 uM incubated for 72 hrs by CellTiter 96 aqueous one solution reagent based MTS assay relative to control; assay type: functional; conditions: read-out: Activity
[4] = biological target: T1, DNA topoisomerase 2-alpha (Homo sapiens, UniProt P11388); experiment: (§1) Inhibition of human DNA topoisomerase 2-alpha using linear pBR322 as substrate assessed as conversion of NADH to NAD+ by measuring residual activity at 40 uM preincubated for 10 to 15 mins in presence of pyruvate kinase/lactate dehydrogenase mix followed by ATP addition and measured after 30 mins by ATPase assay relative to control; conditions: time 40-55 min
T1 sequence (P11388 whole entry): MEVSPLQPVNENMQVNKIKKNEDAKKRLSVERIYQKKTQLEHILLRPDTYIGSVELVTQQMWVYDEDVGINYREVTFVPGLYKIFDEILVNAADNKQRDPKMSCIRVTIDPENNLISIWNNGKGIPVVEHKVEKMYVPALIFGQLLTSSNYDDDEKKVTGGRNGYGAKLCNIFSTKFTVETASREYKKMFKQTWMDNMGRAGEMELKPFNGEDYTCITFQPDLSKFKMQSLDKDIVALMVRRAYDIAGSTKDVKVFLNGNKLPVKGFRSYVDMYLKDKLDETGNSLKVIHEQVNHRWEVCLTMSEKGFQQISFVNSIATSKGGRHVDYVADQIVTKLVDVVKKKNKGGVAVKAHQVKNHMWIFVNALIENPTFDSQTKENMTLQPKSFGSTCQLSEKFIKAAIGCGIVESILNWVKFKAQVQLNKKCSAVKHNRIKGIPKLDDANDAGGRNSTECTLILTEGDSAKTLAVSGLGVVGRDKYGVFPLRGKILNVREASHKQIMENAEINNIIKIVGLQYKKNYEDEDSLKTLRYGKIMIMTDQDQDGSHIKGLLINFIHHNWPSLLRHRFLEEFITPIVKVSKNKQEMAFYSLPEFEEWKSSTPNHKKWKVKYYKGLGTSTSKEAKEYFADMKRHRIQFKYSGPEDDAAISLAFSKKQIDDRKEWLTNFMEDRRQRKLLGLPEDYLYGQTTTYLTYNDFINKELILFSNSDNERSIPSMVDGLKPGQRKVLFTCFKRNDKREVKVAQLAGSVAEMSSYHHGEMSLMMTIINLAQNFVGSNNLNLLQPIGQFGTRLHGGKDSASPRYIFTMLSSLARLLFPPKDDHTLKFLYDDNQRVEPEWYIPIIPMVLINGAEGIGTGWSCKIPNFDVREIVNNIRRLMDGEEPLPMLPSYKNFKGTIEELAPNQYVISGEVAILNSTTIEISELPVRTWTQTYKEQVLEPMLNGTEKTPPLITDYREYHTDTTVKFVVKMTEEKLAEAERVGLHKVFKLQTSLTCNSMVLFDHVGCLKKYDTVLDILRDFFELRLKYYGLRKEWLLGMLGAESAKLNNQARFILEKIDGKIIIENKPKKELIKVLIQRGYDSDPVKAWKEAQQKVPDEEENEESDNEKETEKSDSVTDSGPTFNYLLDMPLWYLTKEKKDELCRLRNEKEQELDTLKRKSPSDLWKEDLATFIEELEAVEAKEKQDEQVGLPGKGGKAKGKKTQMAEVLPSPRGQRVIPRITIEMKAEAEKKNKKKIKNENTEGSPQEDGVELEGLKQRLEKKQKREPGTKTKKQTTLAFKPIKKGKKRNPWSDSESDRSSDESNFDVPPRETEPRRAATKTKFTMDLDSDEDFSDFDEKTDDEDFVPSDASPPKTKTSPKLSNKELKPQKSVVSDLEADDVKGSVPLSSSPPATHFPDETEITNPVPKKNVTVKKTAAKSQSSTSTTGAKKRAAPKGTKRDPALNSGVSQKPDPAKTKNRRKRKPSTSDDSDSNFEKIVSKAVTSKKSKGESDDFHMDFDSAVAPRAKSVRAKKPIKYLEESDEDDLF

Escherichia coli [5] = experiment: Inhibition of Escherichia coli DNA topoisomerase-IV assessed as residual activity at 10 uM by relaxation plate assay relative to control
DNA gyrase = DNA gyrase (Escherichia coli, UniProt P0AES4+P0AES6); experiment: Inhibition of Escherichia coli DNA gyrase by supercoiling plate assay; assay type: protein-complex assay
[6] = biological target: T1, DNA topoisomerase 2-alpha; experiment: as §1, with “10” for “40”; conditions: time 40-55 min
Staphylococcus aureus [7] = experiment: Antibacterial activity against methicillin resistant Staphylococcus aureus ATCC 43300 assessed as post antibiotic effect at 8 times of MIC incubated for 1 hrs and measured after 8 hrs; assay type: functional; conditions: time 9 hrs
Acinetobacter baumannii = experiment: Antibacterial activity against Acinetobacter baumannii ATCC 17978 assessed as inhibition of bacterial growth by broth microdilution method; assay type: functional
Staphylococcus aureus [8] = experiment: Antibacterial activity against methicillin resistant Staphylococcus aureus ATCC 43300 assessed as assessed as bacterial killing incubated for 24 hrs by time-kill kinetics assay; assay type: functional, organism-based
[9] = biological target: T1, DNA topoisomerase 2-alpha; experiment: as §1, with “100” for “40”; conditions: time 40-55 min
[10] = Inhibition of Escherichia coli DNA topoisomerase-IV relaxation plate assay
Staphylococcus aureus [11] = experiment: Drug resistance, ratio of MIC for methicillin-resistant Staphylococcus aureus ATCC 43300 measured after 8 passages to MIC for methicillin-resistant Staphylococcus aureus during first exposure; assay type: functional
Staphylococcus aureus [12] = experiment: Drug resistance, ratio of MIC for methicillin-resistant Staphylococcus aureus ATCC 43300 measured after 10 passages to MIC for methicillin-resistant Staphylococcus aureus during first exposure; assay type: functional
Enterococcus faecalis = experiment: Antibacterial activity against Enterococcus faecalis ATCC 29212 assessed as inhibition of bacterial growth by broth microdilution method; assay type: functional
Enterobacter cloacae = experiment: Antibacterial activity against Enterobacter cloacae subsp. cloacae ATCC 13047 assessed as inhibition of bacterial growth by broth microdilution method; assay type: functional
Staphylococcus aureus [13] = experiment: Antibacterial against vancomycin-intermediate Staphylococcus aureus ATCC 700699 assessed as inhibition of bacterial growth by broth dilution method; assay type: functional
Staphylococcus aureus [14] = experiment: Bactericidal activity against Staphylococcus aureus ATCC 43300 at 8 times MIC measured after 8 hrs by time kill assay; assay type: functional, organism-based
Klebsiella pneumoniae = experiment: Antibacterial activity against Klebsiella pneumoniae ATCC 10031 assessed as inhibition of bacterial growth by broth microdilution method; assay type: functional
[15] = biological target: DNA gyrase (Staphylococcus aureus) (UniProt P0A0K8+P20831); experiment: Inhibition of Staphylococcus aureus DNA gyrase assessed as residual activity at 0.1 uM by supercoiling plate assay relative to control; assay type: protein-complex assay
Sequence of DNA gyrase (Staphylococcus aureus) (P0A0K8 2-644 limits assumed): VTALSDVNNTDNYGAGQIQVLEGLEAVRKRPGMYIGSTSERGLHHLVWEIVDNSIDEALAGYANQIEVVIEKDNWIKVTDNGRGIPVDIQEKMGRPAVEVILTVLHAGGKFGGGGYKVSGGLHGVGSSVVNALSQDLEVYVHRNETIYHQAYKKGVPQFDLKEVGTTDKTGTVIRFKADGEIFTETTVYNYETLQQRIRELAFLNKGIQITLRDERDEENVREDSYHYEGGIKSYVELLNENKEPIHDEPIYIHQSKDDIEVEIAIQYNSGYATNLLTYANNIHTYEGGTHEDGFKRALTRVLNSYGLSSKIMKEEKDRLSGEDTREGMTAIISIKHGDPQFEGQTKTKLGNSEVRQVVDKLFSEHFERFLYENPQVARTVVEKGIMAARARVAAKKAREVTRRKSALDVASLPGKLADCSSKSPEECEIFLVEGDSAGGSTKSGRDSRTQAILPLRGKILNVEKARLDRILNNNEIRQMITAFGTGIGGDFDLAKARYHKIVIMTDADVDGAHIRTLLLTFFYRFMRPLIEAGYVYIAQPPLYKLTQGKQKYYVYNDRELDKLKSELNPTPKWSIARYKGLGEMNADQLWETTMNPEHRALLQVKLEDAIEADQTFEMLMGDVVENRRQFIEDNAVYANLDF
Sequence of DNA gyrase (Staphylococcus aureus) (P20831 whole entry partner): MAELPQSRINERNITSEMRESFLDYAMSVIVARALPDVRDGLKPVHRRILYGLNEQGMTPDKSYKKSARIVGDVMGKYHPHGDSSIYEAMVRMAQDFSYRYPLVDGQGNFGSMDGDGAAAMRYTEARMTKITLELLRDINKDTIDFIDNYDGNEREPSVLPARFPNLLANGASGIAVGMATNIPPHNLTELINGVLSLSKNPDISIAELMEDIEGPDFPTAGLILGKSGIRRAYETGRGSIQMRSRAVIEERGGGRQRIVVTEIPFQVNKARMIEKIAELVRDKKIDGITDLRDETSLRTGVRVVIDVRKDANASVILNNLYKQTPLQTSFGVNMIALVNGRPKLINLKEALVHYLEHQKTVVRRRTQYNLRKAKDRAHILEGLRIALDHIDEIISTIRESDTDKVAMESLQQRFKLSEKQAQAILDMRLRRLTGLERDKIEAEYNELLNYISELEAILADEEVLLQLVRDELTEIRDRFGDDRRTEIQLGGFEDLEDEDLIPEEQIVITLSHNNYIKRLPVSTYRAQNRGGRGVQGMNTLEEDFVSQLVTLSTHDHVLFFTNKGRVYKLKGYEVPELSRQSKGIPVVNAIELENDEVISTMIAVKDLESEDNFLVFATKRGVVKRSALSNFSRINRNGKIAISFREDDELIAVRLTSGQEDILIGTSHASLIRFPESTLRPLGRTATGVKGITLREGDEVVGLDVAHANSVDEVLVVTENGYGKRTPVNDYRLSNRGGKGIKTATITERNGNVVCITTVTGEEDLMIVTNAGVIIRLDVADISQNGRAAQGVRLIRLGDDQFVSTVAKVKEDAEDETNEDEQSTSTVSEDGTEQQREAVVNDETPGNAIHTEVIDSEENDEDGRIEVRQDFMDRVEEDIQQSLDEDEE

Staphylococcus aureus [16] = experiment: Bactericidal activity against methicillin resistant Staphylococcus aureus ATCC 43300 at 8 times of MIC measured a 6 to 24 hrs by time-kill kinetic assay; assay type: functional, organism-based; conditions: time 6-24 hrs
[17] = biological target: DNA gyrase (Escherichia coli) (UniProt P0AES6+P0AES4); experiment: Inhibition of Escherichia coli DNA gyrase assessed as residual activity at 1 uM by supercoiling plate assay relative to control; assay type: protein-complex assay

Row | SMILES | MIC (Escherichia coli [1]) [µg/mL] | MIC (Enterococcus faecium) [µg/mL] | MIC (Pseudomonas aeruginosa) [µg/mL] | MIC (Staphylococcus aureus [2]) [µg/mL] | MIC (Staphylococcus aureus [3]) [µg/mL] | viability at 50 µM (MCF7) [%] | Activity [4] [%] | Activity (Escherichia coli [5]) [%] | IC50 (DNA gyrase) [nM] | PAE (Staphylococcus aureus [7]) [h] | Activity [9] [%] | Ratio (Staphylococcus aureus [11]) | Ratio (Staphylococcus aureus [12]) | further results
1 | Cc1[nH]c(C(=O)Nc2ccc(-c3noc(=O)[nH]3)cc2N2CCOCC2)c(Cl)c1Cl | > 32 | 0.5 (≈ 1.14 µM) | > 32 | 2 (≈ 4.56 µM) | 4 (≈ 9.13 µM) | 101 | 119 | 76 | 13 | – | – | – | – | –
2 | Cc1[nH]c(C(=O)Nc2ccc(-c3nnn[nH]3)cc2N2CCCC(CNC(=O)OC(C)(C)C)C2)c(Cl)c1Cl (stereo not drawn) | – | – | – | – | – | – | – | – | 280 | – | – | – | – | Activity [6]: 95%
3 | Cc1[nH]c(C(=O)Nc2ccc(-c3noc(=O)[nH]3)cc2NC2CCN(C(=O)OC(C)(C)C)CC2)c(Cl)c1Cl | > 64 | 0.063 (≈ 0.114 µM) | > 64 | 0.5 (≈ 0.907 µM) | 2 (≈ 3.63 µM) | 64 | – | – | 6.92 | 2 | 98 | 4 | 128 | MIC (Acinetobacter baumannii): > 64 µg/mL; Activity (Staphylococcus aureus [8]): Dose-Dependent Effect; IC50 [10]: 1680 nM; MIC (Enterococcus faecalis): < 0.031 µg/mL; MIC (Enterobacter cloacae): > 64 µg/mL; MIC (Staphylococcus aureus [13]): < 0.031 µg/mL; Activity (Staphylococcus aureus [14]): Active; MIC (Klebsiella pneumoniae): > 64 µg/mL
4 | Cc1[nH]c(C(=O)Nc2ccc(-n3nn[nH]c3=O)cc2N2CCC(NC(=O)OC(C)(C)C)CC2)c(Cl)c1Cl | – | – | – | – | – | – | – | 63 | 33 | – | 34 | – | – | Activity [15]: 65%
5 | O=C(O)c1cn(C2CC2)c2cc(N3CCNCC3)c(F)cc2c1=O [CIPROFLOXACIN] | – | – | – | – | – | – | – | – | – | 2 | – | 8 | 16 | Activity (Staphylococcus aureus [16]): Active
6 | Cc1nnc(-c2ccc(NC(=O)c3[nH]c(C)c(Cl)c3Cl)c(OC(C)C)c2)o1 | > 64 | – | > 64 | – | > 64 | – | 115 | – | – | – | – | – | – | Activity [17]: 95%
